Laboratory results published in patent US11977075B2, “Method of predicting personalized response to cancer treatment with immune checkpoint inhibitors, method of treating cancer, and kit therefor” (Rappaport Family Institute for Research in the Medical …, priority 2017, dated 2024).

Tests used:
[1] = test system: EMT6 murine breast carcinoma; experiment: EMT6 primary breast tumor model, ICI combined with SB-3CT; format: in vivo, BALB/c mice; conditions: combination with either anti-PD-1 or anti-PD-L1 vs anti-PD-1 or anti-PD-L1 monotherapy
Procedure: Control mice are injected with IgG antibody and vehicle (10% DMSO in normal saline). Mice receiving either anti-PD-1 or anti-PD-L1 monotherapies are also injected with vehicle (10% DMSO in normal saline). Mice receiving SB3-CT monotherapy are also injected with IgG control antibodies. Tumor growth and mouse survival are monitored. At endpoint (when tumors reach a size of ˜1500 mm^3), mice are sacrificed.

[2] = test system: cancer patients; conditions: pooled data from clinical studies; cited from earlier work

Compound | increasing survival [1] | reducing tumor size [1] | duration of clinical response [2] | duration of clinical response, can last up to [2] | subset of patients in which the therapeutic effect is observed [2] [%]
O=S(=O)(CC1CS1)c1ccc(Oc2ccccc2)cc1 (centres unmarked) [SB-3CT, 2-(((4-phenoxyphenyl)sulfonyl)methyl)thiirane] | more effective | more effective |  |  | 
ipilimumab |  |  | around 3 years | up to 10 years | ~20
